# Experimental data from publication PMC3773049 (Journal of the American Chemical Society, 2013).
# Where two headings read alike, the source gives them in different places.
# Experiments:
# [1] = system: mycobacterial proteasome in M. bovis strain BCG; type: cell-based; details: for protection of mycobacterial proteasome from HT1171: then HT1171 25 μM 1 hour
# [2] = molecular target: human c-20S β5c (Homo sapiens, UniProt P20618+P28074); experiment: Inhibition of human constitutive 20S β5c; type: biochemical; details: read-out: Ki μM β5c; Table 2
# [3] = molecular target: T1, Mtb20SOG (Mycobacterium tuberculosis, UniProt P9WHT9)
# T1 sequence (P9WHT9 58-291): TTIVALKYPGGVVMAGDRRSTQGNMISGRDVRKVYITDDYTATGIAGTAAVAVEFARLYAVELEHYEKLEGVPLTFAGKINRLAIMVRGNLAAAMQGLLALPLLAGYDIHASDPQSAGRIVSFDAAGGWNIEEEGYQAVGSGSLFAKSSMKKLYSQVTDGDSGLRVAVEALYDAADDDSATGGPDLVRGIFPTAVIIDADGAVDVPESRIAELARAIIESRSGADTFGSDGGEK
# [4] = molecular target: Mtb20SOG
# [5] = molecular target: T1, Mtb20SOG; remark: listed apart in the source
# [6] = over 22 hours
# [7] = molecular target: human i-20S β5i (Homo sapiens, UniProt P20618+P28062); experiment: Inhibition of human immunoproteasome β5i; type: biochemical; details: Table 2
SMILES,"inhibition of proteasomes in intact BCG ([1]; HT1171 25 μM, 1 hour, absence of DPLG-2)",Ki [2],increase in potency against Mtb20SOG compared to ML9 [3],Ki ([3]; read-out: Ki μM Mtb20SOG),Ki(β5c)/Ki(Mtb) [4],species selectivity for Mtb20SOG over human constitutive proteasome β5 subunit [4],apparent kon [5],dissociation rate constant koff [5],mode of inhibition of Mtb20SOG [5],Ki ([5]; read-out: Ki^app calculated from koff/kon),Ki ([5]; read-out: apparent Ki^app against Mtb20SOG),stability in human plasma [6],Ki(β5i)/Ki(Mtb) [7],Ki ([7]; read-out: Ki μM β5i),protection of mycobacterial proteasome from HT1171 ([1]; DPLG-2 1 μM 4 hours),protection of mycobacterial proteasome from HT1171 ([1]; DPLG-2 10 μM 4 hours),protection of mycobacterial proteasome from HT1171 ([1]; DPLG-2 50 μM 4 hours)
"Cc1sc(-c2nsc(=O)o2)cc1[N+](=O)[O-] [HT1171, reference compound]",inhibited the proteasomes irreversibly,,,,,,,,,,,,,,,,
CCN(CC)C(=O)C[C@H](NC(=O)CCc1ccccc1)C(=O)N[C@@H](Cc1ccc(F)cc1)C(=O)NCc1cccc2ccccc12 [DPLG-2],,70 µM,4 fold,0.015 µM,4670,4670 fold,5.7 ± 0.2 × 10^4 M^−1s^−1,0.0015 ± 0.0001 s⁻¹,time-dependent manner,26.3 nM,24.2 ± 0.9 nM,stable,3650,54.7 µM,HT1171 inhibited the proteasomes irreversibly,able to shield the mycobacterial proteasome active sites from HT1171,able to shield the mycobacterial proteasome active sites from HT1171
